In patent US20260027073A1, “USE OF SMALL-MOLECULE COMPOUND HAVING NAPHTHYLAMINE STRUCTURE” (HANGZHOU PHECDAMED CO., LTD., priority 2023, published 2026):

Tested on: cisplatin-induced hearing impairment model in mice
Test: Cisplatin-induced hearing damage
Type: in vivo, C57 mice
Description: Select 8-week-old C57 male mice weighing 22-25 g, according to the previous studies and the previous laboratory exploration, mice were induced to have hearing damage by 4 mg/kg of cisplatin, and a certain amount of cisplatin was dissolved in 0.9% saline of the model control group, and then intraperitoneally injected into the mice for four consecutive days, with the volume of the intraperitoneal injection of 5 ml/kg, and then intraperitoneally injected into the mice for four consecutive days with the volume of 0.9% saline for recovery and alleviation, the injection was prescribed at the same time point every day, and no treatment was done on the 9th day to conduct hearing test or dissect the mice for subsequent experiments. […]
The mice were sacrificed by neck dissection, and the cochlea was removed from mice by neck dissection, and processed under the anatomical microscope to expose the round window and the oval window, the cochlear apex was perforate, and the round window, the oval window and the cochlear apex were perfused with 4% PFA solution, and then the whole cochlea was put into 4% PFA solution for fixation, and was shaken overnight at 4° C. […] Finally, photographs were taken using a fluorescence microscope.

O=C(O)C[S+]([O-])c1cc(NS(=O)(=O)c2ccc(Br)cc2)c2ccccc2c1O (centres unmarked) [I-1]
hearing thresholds (ABR) (4, 8, 16, 24, 32 kHz, 30 mg/kg gavage, 8 days, FIG. 46): significantly decreased | loss of hair cells (Myo7a, cochlear basement membrane) (apical, middle, base gyrus, FIG. 47): significantly reduced the loss of hair cells
